Drawing on patent US8722849B2, “Polypeptides” (Novo Nordisk A/S, priority 2011, dated 2014), this text covers EC50 and solubility for three compounds.

Data set [1] has as its target T1, rat amylin 3(a) receptor (rat calcitonin(a) receptor + rat RAMP3) (Rattus norvegicus, UniProt P32214+Q9JJ73).
T1 construct: expressed in transfected cells; host or cells: BHK tk'ts 13
T1 sequence (P32214 25-479 isoform P32214-2 limits assumed): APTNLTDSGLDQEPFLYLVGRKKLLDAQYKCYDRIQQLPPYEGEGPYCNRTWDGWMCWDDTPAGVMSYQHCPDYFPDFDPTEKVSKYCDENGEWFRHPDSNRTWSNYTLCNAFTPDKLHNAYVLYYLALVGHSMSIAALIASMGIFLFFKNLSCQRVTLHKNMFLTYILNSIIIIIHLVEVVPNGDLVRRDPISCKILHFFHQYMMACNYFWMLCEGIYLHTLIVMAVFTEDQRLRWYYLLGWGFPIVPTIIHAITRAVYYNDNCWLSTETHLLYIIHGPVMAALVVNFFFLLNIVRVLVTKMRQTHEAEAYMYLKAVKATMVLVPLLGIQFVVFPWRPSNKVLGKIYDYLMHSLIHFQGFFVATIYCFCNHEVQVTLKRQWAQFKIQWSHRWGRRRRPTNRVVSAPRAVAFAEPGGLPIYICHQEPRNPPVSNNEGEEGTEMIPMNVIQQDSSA
T1 sequence (Q9JJ73 23-147 partner): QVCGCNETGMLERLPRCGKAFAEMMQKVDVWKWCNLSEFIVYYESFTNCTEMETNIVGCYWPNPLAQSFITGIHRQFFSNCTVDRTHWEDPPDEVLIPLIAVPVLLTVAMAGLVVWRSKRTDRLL
The data set is described as follows: Assay (II)b functional cAMP FlashPlate assay, rat amylin receptor. The conditions noted are these: Table 11. It counts as cell-based. The procedure, abridged: (§1)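 cAMP accumulation in transiently transfected BHK tk'ts 13 cells, 100.000 cells/well, expressing rat calcitonin(a) receptor or its RAMP3 co-expression form (amylin 3(a)): 30 min stimulation with IBMX, 24 hours post-transfection. Readout by competition of cellular versus radiolabelled cAMP in FlashPlates, scintillation counted after 3 h.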

Data set [2] addresses T2, rat calcitonin (a) receptor (Rattus norvegicus, UniProt P32214).
T2 construct: expressed in transfected cells; host or cells: BHK tk'ts 13
T2 sequence (P32214 25-479 isoform P32214-2 limits assumed): T1 sequence (P32214 25-479 isoform P32214-2 limits assumed)
The data set is described as follows: Assay (II)b functional cAMP FlashPlate assay, rat calcitonin receptor. It counts as cell-based. To be noted: Table 11; read-out: CTa receptor rat EC50. The procedure, abridged: as §1

The target of data set [3] is T3, human calcitonin receptor (Homo sapiens, UniProt P30988).
T3 construct: expressed in transfected cells; host or cells: BHK570
T3 sequence (P30988 25-474): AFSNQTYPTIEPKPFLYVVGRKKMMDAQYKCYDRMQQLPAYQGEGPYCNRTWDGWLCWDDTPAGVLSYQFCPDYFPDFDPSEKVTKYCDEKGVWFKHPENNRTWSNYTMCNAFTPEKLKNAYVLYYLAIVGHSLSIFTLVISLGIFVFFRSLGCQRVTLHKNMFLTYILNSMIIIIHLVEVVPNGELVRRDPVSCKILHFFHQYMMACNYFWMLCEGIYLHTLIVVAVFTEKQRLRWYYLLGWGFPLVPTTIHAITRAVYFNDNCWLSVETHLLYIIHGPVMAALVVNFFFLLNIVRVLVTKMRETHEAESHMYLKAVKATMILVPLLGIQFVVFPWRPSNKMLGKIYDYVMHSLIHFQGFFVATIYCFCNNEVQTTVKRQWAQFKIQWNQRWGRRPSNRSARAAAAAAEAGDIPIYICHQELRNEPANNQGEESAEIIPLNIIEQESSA
The data set is described as follows: Assay (II)a functional CRE-luciferase assay, human calcitonin receptor. It counts as cell-based. To be noted: Table 7; human calcitonin (CTa) receptor.

Data set [4] concerns the target T4, human amylin receptor (amylin 3(a) receptor: human calcitonin receptor + RAMP-3) (Homo sapiens, UniProt O60896+P30988).
T4 construct: expressed in transfected cells; host or cells: BHK570
T4 sequence (P30988 25-474): T3 sequence (P30988 25-474)
T4 sequence (O60896 24-148 partner): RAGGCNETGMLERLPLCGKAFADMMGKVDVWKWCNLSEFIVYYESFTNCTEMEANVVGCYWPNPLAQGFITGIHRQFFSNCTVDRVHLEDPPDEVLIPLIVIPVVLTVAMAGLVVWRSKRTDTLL
Nature of the data set: Assay (II)a functional CRE-luciferase assay, human amylin receptor. The data set is classed as cell-based. The conditions noted are these: Table 2; BHK amylin 3(a)-receptor/CRE-luc cells.

Data set [5] in a line: Assay (IV) determination of solubility. It counts as physicochemical. The procedure, abridged: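 Eight 100 mM buffers (glycylglycine pH 3.0–5.0, bistrispropane pH 6.0–8.0) each received an equal volume of polypeptide dissolved in water at ~500 nmol/ml. Soluble polypeptide was measured by HPLC following 18 hours at room temperature and centrifugation.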
Setting [6] is: bistrispropane buffer, pH 6, pH 6.0, read-out: Solubility pH 6.0.
Where [7] appears, read: bistrispropane buffer, pH 6.5, pH 6.5, read-out: Solubility pH 6.5.
The mark [8] stands for this setting: bistrispropane buffer, pH 7.5, pH 7.5, read-out: Solubility pH 7.5.
Where [9] appears, read: bistrispropane buffer, pH 8, pH 8.0, read-out: Solubility pH 8.0.
Where [10] appears, read: glycylglycine buffer, pH 3, pH 3.0, read-out: Solubility pH 3.0.
Where [11] appears, read: glycylglycine buffer, pH 4, pH 4.0, 18 hours at room temperature, Table 2, read-out: Solubility pH 4.0.
[12] abbreviates: glycylglycine buffer, pH 4, pH 4.0, read-out: Solubility pH 4.0.
[13] abbreviates: glycylglycine buffer, pH 5, pH 5.0, read-out: Solubility pH 5.0.
[14] abbreviates: bistrispropane buffer, pH 7, pH 7.0, 18 hours at room temperature, Table 3, read-out: Solubility pH 7.0.
[15] abbreviates: bistrispropane buffer, pH 7, pH 7.0, read-out: Solubility pH 7.0.

Converted amounts (≈) assume the structure as drawn. Like-named read-outs stand apart in the source and are kept apart here. Starred links: 1 amine or outer side, 2 acyl side, 3 side chain; linkers in the order of their positions; H or OH if unused. Positions of bridges follow the written chain, without caps; N, C: chain ends. Residues, ends and D or L forms follow the SMILES beside them. *: point of attachment. C20 diacid = O=C(O)CCCCCCCCCCCCCCCCCCC(=O)*; C18 diacid = O=C(O)CCCCCCCCCCCCCCCCC(=O)*; γGlu = O=C(O)[C@H](CCC(=O)[*:2])N[*:1]

Take `CC[C@H](C)[C@H](NC(=O)[C@@H]1CCCN1C(=O)CNC(=O)[C@H](Cc1ccccc1)NC(=O)[C@H](CC(N)=O)NC(=O)[C@H](CC(N)=O)NC(=O)[C@H](CO)NC(=O)[C@H](CO)NC(=O)[C@H](Cc1c[nH]cn1)NC(=O)[C@H](Cc1c[nH]cn1)NC(=O)[C@H](CC(C)C)NC(=O)[C@H](Cc1ccccc1)NC(=O)[C@H](CCC(=O)O)NC(=O)[C@H](C)NC(=O)[C@H](CC(C)C)NC(=O)[C@H](CCCNC(=N)N)NC(=O)[C@H](CCC(N)=O)NC(=O)[C@@H](NC(=O)[C@H](C)NC(=O)[C@@H]1CSSC[C@H](NC(=O)[C@H](Cc2c[nH]cn2)NC(=O)[C@H](Cc2c[nH]cn2)NC(=O)[C@H](Cc2c[nH]cn2)NC(=O)CC[C@H](NC(=O)CCCCCCCCCCCCCCCCCCC(=O)O)C(=O)O)C(=O)N[C@@H](Cc2c[nH]cn2)C(=O)N[C@@H]([C@@H](C)O)C(=O)N[C@@H](C)C(=O)N[C@@H]([C@@H](C)O)C(=O)N1)[C@@H](C)O)C(=O)N[C@@H](CC(C)C)C(=O)N1CCC[C@H]1C(=O)N1CCC[C@H]1C(=O)N[C@H](C(=O)N[C@@H](CC(N)=O)C(=O)N[C@H](C(=O)NCC(=O)N[C@@H](CO)C(=O)N[C@@H](Cc1c[nH]cn1)C(=O)N[C@H](C(=O)N[C@@H](Cc1ccc(O)cc1)C(N)=O)[C@@H](C)O)C(C)C)[C@@H](C)O` [Example 32, N-alpha-[(S)-4-Carboxy-4-(19-carboxynonadecanoylamino)butyryl]-His-His-[His1,His3,Glu14,His17,His35]-pramlintide] ({C20 diacid-γGlu}-HHHCHTATCATQRLAEFLHHSSNNFGPILPPTNVGSHTY-NH2; disulfide 4-9 (inferred)): the EC50 stood at 0.401 nM in data set [1], 4.87 nM in data set [2], 0.543 nM in data set [3] and 0.603 nM in data set [4]. Moreover, the solubility at 18 h in data set [5] (setting [6]) is above 200 µM; in data set [5] (setting [7]), 6 µM (≈ 28.7 µg/mL); in data set [5] (setting [8]), 6 µM (≈ 28.7 µg/mL); in data set [5] (setting [9]), 55 µM (≈ 263 µg/mL); in data set [5] (setting [10]), above 200 µM; in data set [5] (setting [11]), above 200 µM. The solubility at 18 h in data set [5] (setting [12]) and in data set [5] (setting [13]) was above 200 µM throughout.

For `CC[C@H](C)[C@H](NC(=O)[C@@H]1CCCN1C(=O)CNC(=O)[C@H](Cc1ccccc1)NC(=O)[C@H](CC(N)=O)NC(=O)[C@H](CC(N)=O)NC(=O)[C@H](CO)NC(=O)[C@H](CO)NC(=O)[C@H](Cc1c[nH]cn1)NC(=O)[C@H](Cc1c[nH]cn1)NC(=O)[C@H](CC(C)C)NC(=O)[C@H](Cc1ccccc1)NC(=O)[C@H](CCC(=O)O)NC(=O)[C@H](C)NC(=O)[C@H](CC(C)C)NC(=O)[C@H](CCCNC(=N)N)NC(=O)[C@H](CCC(N)=O)NC(=O)[C@@H](NC(=O)[C@H](C)NC(=O)[C@@H]1CSSC[C@H](NC(=O)[C@H](CCCCN)NC(=O)[C@H](CCC(=O)O)NC(=O)CC[C@H](NC(=O)CCCCCCCCCCCCCCCCC(=O)O)C(=O)O)C(=O)N[C@@H](CC(N)=O)C(=O)N[C@@H]([C@@H](C)O)C(=O)N[C@@H](C)C(=O)N[C@@H]([C@@H](C)O)C(=O)N1)[C@@H](C)O)C(=O)N[C@@H](CC(C)C)C(=O)N1CCC[C@H]1C(=O)N1CCC[C@H]1C(=O)N[C@H](C(=O)N[C@@H](CC(N)=O)C(=O)N[C@H](C(=O)NCC(=O)N[C@@H](CO)C(=O)N[C@@H](CC(N)=O)C(=O)N[C@H](C(=O)N[C@@H](Cc1ccc(O)cc1)C(N)=O)[C@@H](C)O)C(C)C)[C@@H](C)O` [Example 42, N-alpha-[(S)-4-Carboxy-4-(17-carboxyheptadecanoylamino)butyryl]-Glu-[Glu14,His17]-pramlintide] ({C18 diacid-γGlu}-EKCNTATCATQRLAEFLHHSSNNFGPILPPTNVGSNTY-NH2; disulfide 3-8 (inferred)), the EC50 in data set [1] is 0.135 nM; in data set [2] it was 2.43 nM; in data set [3] it was 0.274 nM; in data set [4], 0.0739 nM. In addition, the solubility at 18 h in data set [5] (setting [6]), in data set [5] (setting [7]), in data set [5] (setting [14]), in data set [5] (setting [15]), in data set [5] (setting [8]) and in data set [5] (setting [9]) was above 200 µM throughout. Also, the solubility at 18 h in data set [5] (setting [10]), in data set [5] (setting [11]), in data set [5] (setting [12]) and in data set [5] (setting [13]) was above 200 µM in each case.

Turning to `CC[C@H](C)[C@H](NC(=O)[C@@H]1CCCN1C(=O)CNC(=O)[C@H](Cc1ccccc1)NC(=O)[C@H](CC(N)=O)NC(=O)[C@H](CC(N)=O)NC(=O)[C@H](CO)NC(=O)[C@H](CO)NC(=O)[C@H](Cc1c[nH]cn1)NC(=O)[C@H](Cc1c[nH]cn1)NC(=O)[C@H](CC(C)C)NC(=O)[C@H](Cc1ccccc1)NC(=O)[C@H](CCC(=O)O)NC(=O)[C@H](C)NC(=O)[C@H](CC(C)C)NC(=O)[C@H](CCCNC(=N)N)NC(=O)[C@H](CCC(N)=O)NC(=O)[C@@H](NC(=O)[C@H](C)NC(=O)[C@@H]1CSSC[C@H](NC(=O)[C@H](CCCCN)NC(=O)CC[C@H](NC(=O)CCCCCCCCCCCCCCCCC(=O)O)C(=O)O)C(=O)N[C@@H](CC(N)=O)C(=O)N[C@@H]([C@@H](C)O)C(=O)N[C@@H](C)C(=O)N[C@@H]([C@@H](C)O)C(=O)N1)[C@@H](C)O)C(=O)N[C@@H](CC(C)C)C(=O)N1CCC[C@H]1C(=O)N1CCC[C@H]1C(=O)N[C@H](C(=O)N[C@@H](CC(N)=O)C(=O)N[C@H](C(=O)NCC(=O)N[C@@H](CO)C(=O)N[C@@H](CC(N)=O)C(=O)N[C@H](C(=O)N[C@@H](Cc1ccc(O)cc1)C(N)=O)[C@@H](C)O)C(C)C)[C@@H](C)O` [Example 46, N-alpha-[(S)-4-Carboxy-4-(17-carboxyheptadecanoylamino)butyryl]-[Glu14,His17]-pramlintide] ({C18 diacid-γGlu}-KCNTATCATQRLAEFLHHSSNNFGPILPPTNVGSNTY-NH2; disulfide 2-7 (inferred); C-terminus assumed), the EC50 in data set [1] worked out at 0.122 nM; in data set [2], 0.433 nM; in data set [3], 0.0792 nM; in data set [4] it was 0.0469 nM. Also, the solubility at 18 h is above 200 µM in data set [5] (setting [6]); above 200 µM in data set [5] (setting [7]); 169 µM (≈ 748 µg/mL) in data set [5] (setting [14]); 169 µM (≈ 748 µg/mL) in data set [5] (bistrispropane buffer, pH 7, pH 7.0, Table 8, read-out: Solubility pH 7.0); 169 µM (≈ 748 µg/mL) in data set [5] (setting [15]); 197 µM (≈ 872 µg/mL) in data set [5] (setting [8]). For the same compound, the solubility at 18 h in data set [5] (setting [9]), in data set [5] (setting [10]), in data set [5] (setting [11]), in data set [5] (setting [12]) and in data set [5] (setting [13]) was above 200 µM throughout.

Broadly, the EC50 is the concentration at which the effect is half-maximal. As usually defined, the solubility is the concentration that dissolves in the medium under given conditions.
